From ChEMBL document CHEMBL5360558, “Molecular design, synthesis and anticancer activity of new thiopyrano[2,3-d]thiazoles based on 5-hydroxy-1,4-naphthoquinone (juglone)” (Eur J Med Chem, 2023)
pIC50: −log10 of the molar value.

Experiments:
[1] = Cytotoxicity against mouse NIH3T3 cells assessed as cell growth inhibition incubated for 72 hrs by MTT assay; type: toxicity, cell-based
MCF7 = experiment: Cytotoxicity against human MCF7 cells assessed as cell growth inhibition incubated for 72 hrs by MTT assay; type: functional, cell-based; conditions: MCF7, 72 h
[2] = Cytotoxicity against human HCT116-p53-null cells assessed as cell growth inhibition incubated for 72 hrs by MTT assay; type: functional, cell-based
HCT-116 = experiment: Cytotoxicity against human HCT-116 cells assessed as cell growth inhibition incubated for 72 hrs by MTT assay; type: functional, cell-based; conditions: HCT-116, 72 h
KB 3-1 = experiment: Cytotoxicity against human KB 3-1 cells assessed as cell growth inhibition incubated for 72 hrs by MTT assay; type: functional, cell-based; conditions: KB 3-1, 72 h
[3] = Cytotoxicity against mouse J774.2 cells assessed as cell growth inhibition incubated for 72 hrs by MTT assay; type: toxicity, cell-based
K562 = experiment: Cytotoxicity against human K562 cells assessed as cell growth inhibition incubated for 72 hrs by MTT assay; type: functional, cell-based; conditions: K562, 72 h
[4] = (§1) Cytotoxicity against human HaCaT cells assessed as cell growth inhibition incubated for 72 hrs by MTT assay; type: toxicity, cell-based; conditions: HaCaT cells
Salmon testes DNA = experiment: Displacement of methyl green from salmon sperm DNA assessed as DNA intercalation at 10 uM incubated for 24 hrs by fluorescence plate reader method relative to control; type: nucleic-acid assay; conditions: Salmo salar
UO-31 = experiment: Anticancer activity against human UO-31 cells assessed as cell growth at 10 uM incubated for 48 hrs by sulforhodamine B assay; type: functional; conditions: read-out: Activity
BT-549 = experiment: Anticancer activity against human BT-549 cells assessed as cell growth at 10 uM incubated for 48 hrs by sulforhodamine B assay; type: functional; conditions: read-out: Activity
CAKI-1 = experiment: Anticancer activity against human CAKI-1 cells assessed as cell growth at 10 uM incubated for 48 hrs by sulforhodamine B assay; type: functional; conditions: read-out: Activity
SR = experiment: Anticancer activity against human SR cells assessed as cell growth at 10 uM incubated for 48 hrs by sulforhodamine B assay; type: functional; conditions: read-out: Activity
SF-539 = experiment: Anticancer activity against human SF-539 cells assessed as cell growth at 10 uM incubated for 48 hrs by sulforhodamine B assay; type: functional; conditions: read-out: Activity
HCT-15 = experiment: Anticancer activity against human HCT-15 cells assessed as cell growth at 10 uM incubated for 48 hrs by sulforhodamine B assay; type: functional; conditions: read-out: Activity
NCI-H322M = experiment: Anticancer activity against human NCI-H322M cells assessed as cell growth at 10 uM incubated for 48 hrs by sulforhodamine B assay; type: functional; conditions: read-out: Activity
RXF 393 = experiment: Anticancer activity against human RXF 393 cells assessed as cell growth at 10 uM incubated for 48 hrs by sulforhodamine B assay; type: functional; conditions: read-out: Activity
HOP-62 = experiment: Anticancer activity against human HOP-62 cells assessed as cell growth at 10 uM incubated for 48 hrs by sulforhodamine B assay; type: functional; conditions: read-out: Activity
SF-295 = experiment: Anticancer activity against human SF-295 cells assessed as cell growth at 10 uM incubated for 48 hrs by sulforhodamine B assay; type: functional; conditions: read-out: Activity
M14 = experiment: Anticancer activity against human M14 cells assessed as cell growth at 10 uM incubated for 48 hrs by sulforhodamine B assay; type: functional; conditions: read-out: Activity
SK-MEL-5 = experiment: Anticancer activity against human SK-MEL-5 cells assessed as cell growth at 10 uM incubated for 48 hrs by sulforhodamine B assay; type: functional; conditions: read-out: Activity
Malme-3M = experiment: Anticancer activity against human Malme-3M cells assessed as cell growth at 10 uM incubated for 48 hrs by sulforhodamine B assay; type: functional; conditions: read-out: Activity
MDA-MB-435 = experiment: Anticancer activity against human MDA-MB-435 cells assessed as cell growth at 10 uM incubated for 48 hrs by sulforhodamine B assay; type: functional; conditions: read-out: Activity
SN12C = experiment: Anticancer activity against human SN12C cells assessed as cell growth at 10 uM incubated for 48 hrs by sulforhodamine B assay; type: functional; conditions: read-out: Activity
OVCAR-5 = experiment: Anticancer activity against human OVCAR-5 cells assessed as cell growth at 10 uM incubated for 48 hrs by sulforhodamine B assay; type: functional; conditions: read-out: Activity
OVCAR-8 = experiment: Anticancer activity against human OVCAR-8 cells assessed as cell growth at 10 uM incubated for 48 hrs by sulforhodamine B assay; type: functional; conditions: read-out: Activity
SNB-19 = experiment: Anticancer activity against human SNB-19 cells assessed as cell growth at 10 uM incubated for 48 hrs by sulforhodamine B assay; type: functional; conditions: read-out: Activity
SK-MEL-28 = experiment: Anticancer activity against human SK-MEL-28 cells assessed as cell growth at 10 uM incubated for 48 hrs by sulforhodamine B assay; type: functional; conditions: read-out: Activity
UACC-257 = experiment: Anticancer activity against human UACC-257 cells assessed as cell growth at 10 uM incubated for 48 hrs by sulforhodamine B assay; type: functional; conditions: read-out: Activity
HCC 2998 = experiment: Anticancer activity against human HCC 2998 cells assessed as cell growth at 10 uM incubated for 48 hrs by sulforhodamine B assay; type: functional; conditions: read-out: Activity
A498 = experiment: Anticancer activity against human A498 cells assessed as cell growth at 10 uM incubated for 48 hrs by sulforhodamine B assay; type: functional; conditions: read-out: Activity
HaCaT = experiment: as §1; type: toxicity, cell-based; conditions: hacat, 72 h

| Structure (SMILES) | Activity (Salmon testes DNA) [%] | IC50 at 72 h [1] [µM] | pIC50 (MCF7) | pIC50 [2] | pIC50 (HCT-116) | pIC50 (KB 3-1) | IC50 at 72 h [3] [µM] | pIC50 (K562) | IC50 at 72 h [4] [µM] | other results |
| --- | --- | --- | --- | --- | --- | --- | --- | --- | --- | --- |
| O=C1C2=C(C(=O)c3c(O)cccc31)C(CCc1ccccc1)c1sc(=O)[nH]c1S2 (stereo not given) | 11.8 |  | < 4.30 | < 4.30 | < 4.30 | < 4.30 | > 50 | < 4.30 |  |  |
| O=C1C2=C(C(=O)c3ccccc31)C(c1ccco1)c1sc(=O)[nH]c1S2 (stereo not given) | 11.8 | 38.9 | 4.54 | 5.20 | 5.26 | 5.26 | 6.77 | 4.51 |  | Activity (HaCaT): Non-Toxic |
| CC1(C)C2=C(Sc3[nH]c(=O)sc31)C(=O)c1cccc(O)c1C2=O | 42.5 | > 50 | 5.02 | 4.44 | 4.89 | 4.63 | 26.4 | 4.57 | > 50 |  |

The next lines start with results.

| Activity (Salmon testes DNA) [%] | Structure (SMILES) | IC50 at 72 h [1] [µM] | pIC50 (MCF7) | pIC50 [2] | pIC50 (HCT-116) | pIC50 (KB 3-1) | IC50 at 72 h [3] [µM] | pIC50 (K562) | IC50 at 72 h [4] [µM] | other results |
| --- | --- | --- | --- | --- | --- | --- | --- | --- | --- | --- |
| 55.4 | CN(C)c1ccc(C2C3=C(Sc4[nH]c(=O)sc42)C(=O)c2cccc(O)c2C3=O)cc1 (stereo not given) | > 50 | < 4.30 | 5.05 | 5.21 | 5.14 | 26.9 | 4.64 | > 50 |  |
| 29.5 | O=C1C2=C(C(=O)c3c(O)cccc31)C(c1ccc(Cl)cc1)c1sc(=O)[nH]c1S2 (stereo not given) | 46.6 | 5.12 | 5.51 | 5.39 | 5.48 | 5.27 | 4.72 | > 50 | growth at 10 µM (UO-31): 39.8%; growth at 10 µM (BT-549): 39.5%; growth at 10 µM (CAKI-1): 36.7%; growth at 10 µM (SR): 38.6%; growth at 10 µM (SF-539): 35.1% |
| 66.4 | O=C1C2=C(C(=O)c3c(O)cccc31)C(c1cccs1)c1sc(=O)[nH]c1S2 (stereo not given) | 39.1 | 4.62 | 5.27 | 5.29 | 5.34 | 6.81 | 4.67 |  | growth at 10 µM (HCT-15): -91.4%; growth at 10 µM (NCI-H322M): -96.8%; growth at 10 µM (RXF 393): -97.4%; growth at 10 µM (HOP-62): -94.3%; growth at 10 µM (SF-295): -93.5%; growth at 10 µM (M14): -96.7%; growth at 10 µM (UO-31): -92.9%; growth at 10 µM (BT-549): -99.9%; growth at 10 µM (SK-MEL-5): -96.9%; growth at 10 µM (Malme-3M): -99.4%; growth at 10 µM (MDA-MB-435): -90.2%; growth at 10 µM (SN12C): -92.8%; growth at 10 µM (OVCAR-5): -93%; growth at 10 µM (OVCAR-8): -94.6%; growth at 10 µM (SNB-19): -99.5%; growth at 10 µM (SK-MEL-28): -97.2%; growth at 10 µM (SF-539): -99.5%; growth at 10 µM (UACC-257): -93.1%; growth at 10 µM (HCC 2998): -96.8%; growth at 10 µM (A498): -98.7% |
| 29.5 | COc1ccc(C2C3=C(Sc4[nH]c(=O)sc42)C(=O)c2cccc(O)c2C3=O)cc1 (stereo not given) | 6.78 | 5.21 | 5.49 | 5.50 | 6.06 | 2.95 | 5.25 | 40.8 |  |
